# How the values were obtained:
# [1] = tested on: canine model of renovascular hypertension; conditions: J. Hypertens. 1998, 16, 835-841; cited from earlier work
# male mongrel dogs = assay: Endothelin-1-induced changes in diastolic and urethral pressures in the anesthetized male dog; assay type: in vivo
# Method: Methodology for Determining Whether an ET-1 Receptor Selective Antagonist could Inhibit the ET-1 Mediated Prostatic Urethral Contractions in a Mongrel Dog Model:
# On separate days, two fasted male mongrel dogs (from commercial suppliers) weighing 11.0 and 12.4 kilograms (kg), are anesthetized with sodium pentobarbital at 35 mg/kg (i.v.) to effect, followed by 4 mg/kg/hr (i.v.) infusion. A cuffed endotracheal tube is inserted and each animal is ventilated with room air using a positive displacement large animal ventilator at a rate of 18 breaths/minute and an average tidal volume of 18 mL/kg body weight. Body temperature is maintained with a heating pad and heat lamp using a temperature controller and esophageal probe. Two catheters are placed in the aorta via the femoral arteries (one in each artery) for administration of endothelin or phenylephrine and for continuous direct monitoring of blood pressure and heart rate using a Statham blood pressure transducer (Spectramed) and a computer system (Modukar Instruments, Inc.). Two other catheters are placed in the vena cava via the femoral veins (one catheters in each vein) for administration of pentobarbital and N-(4-isopropyl (d7)-benzenesulfonyl)-α-(4-carboxy-2-n-propylphenoxy)-3,4-methylenedioxyphenylacetamide dipotassium salt.
# A supra-pubic incision approximately one-half inch lateral to the penis is made to expose the ureters, urinary bladder, prostate, and urethra. The dome of the bladder is retracted to facilitate dissection of the ureters. The ureters are cannulated with PE 90 and tied off to the bladder. Umbilical tape is passed beneath the urethra at the bladder neck and another piece of tape is placed approximately 1-2 cm distal to the prostate. The bladder is incised and a Micro-tip catheter transducer is advanced into the urethra. The neck of the bladder is ligated with the umbilical tape to hold the transducer. The bladder incision is sutured with 3-0 silk (purse string suture). The transducer is withdrawn until it is positioned in the prostatic urethra. The position of the Micro-tip catheter is verified by gently squeezing the prostate and noting the large change in urethral pressure prior to ligating the distal urethra.
# Phenylephrine (10 μg/kg, intra-arterial) is administered and pressor effects on diastolic blood pressure (DBP) and intra-urethral pressure (IUP) is noted. When blood pressure returned to baseline, endothelin-1 (1 nmole/kg, intra-arterial) is administered. Changes in DBP and IUP are monitored for one hour and an ET-1 selective endothelin antagonist, such as the deuterated compound, N-(4-isopropyl(d7)benzenesulfonyl)-α-(4-carboxy-2-n-propylphenoxy)-3,4-methylenedioxyphenyl-acetamide dipotassium salt (30 mg/kg, intra-venous), is administered. […] Phenylephrine is administered at the end of experiment to verify specificity for ET-1 blockade. The dogs are euthanized with an overdose of pentobarbital followed by saturated KCl.
# The drugs utilized in the experiment described above are: • (1) Phenylephrine, HCl (PE) (Sigma Chemical Co.) is given at a volume of 0.05 mL/kg; • (2) Endothelin-1 (ET-1) (Human, Porcine, Canine, rat, Mouse, Bovine) is given at a volume of 0.05 mL/kg; • (3) ET-1 selective antagonist, such as the deuterated compound N-(4-isopropyl(d7)benzenesulfonyl)-α-(4-carboxy-2-n-propyl-[…]phenoxy)-3,4-methylenedioxyphenyl-acetamide dipotassium salt, is given at a volume of 0.3 mL/kg. • All drugs are dissolved in isotonic saline solution.
# rat prostate = assay: In situ rat prostate, ET-1 induced contraction; assay type: in vivo, Sprague-Dawley rats; conditions: ET-1 0.3 nmoles/kg intra-arterial; antagonist IA five minutes before third ET-1 injection
# Method: Male Sprague-Dawley rats weighing 300-400 grams are anesthetized with urethane (1.75 g/kg, ip), a tracheal cannula is inserted, and the femoral artery is cannulated. Core body temperature is maintained at 37° C. A 4-5 cm midline abdominal incision is made to expose the bladder and prostate. The prostate is separated from the bladder and surrounding capsule by blunt dissection with a forcep. A length of surgical silk is gently secured around the anterior tips of the prostate lobes. A second length of surgical silk attached to an atraumatic needle is passed through and tied to the base of the prostate approximately 10-12 mm posterior to the first tie. The posterior ligature is secured to an anchor post whereas the anterior ligature is connected to a Grass FT03 transducer and maintained at a tension of 1 g. Signals from the transducer are amplified and recorded on a polygraph (Hewlett-Packard 8805B amplifiers and 7758 recorder, Palo Alto, CA). After equilibrating for over 15 min, the rats are administered pretreatment drugs (atropine 1 mg/kg, (+) propranolol 1 mg/kg) 10 min apart through the intra-arterial (IA) cannula. […] The response of the prostate to ET-1 is quantified by measuring the change from baseline tension to the peak of the response during the five-minute period after the third ET-1 injection. […]
# [2] = ET-1 1 nmole/kg intra-arterial, before antagonist, average
# [3] = 30 mg/kg i.v., ET-1 1 nmole/kg intra-arterial challenge ten to 15 minutes after administration
# [4] = PE 10 μg/kg intra-arterial after antagonist 30 mg/kg i.v., one dog
smiles,measurement,setting,value
CCCCc1nc(Cl)c(CO)n1Cc1ccc(-c2ccccc2-c2nn[nH]n2)cc1 [Losartan],reduction in mean arterial blood pressure,[1],20 mmHg
"CC[C@H](C)[C@H](NC(=O)[C@H](CC(=O)O)NC(=O)[C@H](CC(C)C)NC(=O)[C@H](Cc1c[nH]cn1)NC(=O)[C@@H]1CSSC[C@H](N)C(=O)N[C@@H](CO)C(=O)N[C@H]2CSSC[C@H](NC(=O)[C@H](CCC(=O)O)NC(=O)[C@H](CCCCN)NC(=O)[C@H](CC(=O)O)NC(=O)[C@H](CCSC)NC(=O)[C@H](CC(C)C)NC(=O)[C@H](CO)NC(=O)[C@H](CO)NC2=O)C(=O)N[C@@H](C(C)C)C(=O)N[C@@H](Cc2ccc(O)cc2)C(=O)N[C@@H](Cc2ccccc2)C(=O)N1)C(=O)N[C@H](C(=O)N[C@@H](Cc1c[nH]c2ccccc12)C(=O)O)[C@@H](C)CC [ET-1, reference compound]",increase in IUP,male mongrel dogs; [2],15 mmHg
same,peak pressor effect on DBP,male mongrel dogs; [2],25 mmHg
same,decrease in DBP (initial depressor effect),"male mongrel dogs; ET-1 1 nmole/kg intra-arterial, before antagonist, average of both dogs",15 mmHg
"[2H]C([2H])([2H])C([2H])(c1ccc(S(=O)(=O)NC(=O)C(Oc2ccc(C(=O)[O-])cc2CCC)c2ccc3c(c2)OCO3)cc1)C([2H])([2H])[2H].[2H]C([2H])([2H])C([2H])(c1ccc(S(=O)(=O)NC(=O)C(Oc2ccc(C(=O)[O-])cc2CCC)c2ccc3c(c2)OCO3)cc1)C([2H])([2H])[2H].[K+].[K+] (stereo not drawn) [N-(4-isopropyl(d7)benzenesulfonyl)-α-(4-carboxy-2-n-propylphenoxy)-3,4-methylenedioxyphenylacetamide Dipotassium Salt]",effect on ET-1 contraction of the prostate,rat prostate,specific inhibition
same,inhibition of ET-1 depressor effect on DBP,male mongrel dogs; [3],70%
same,inhibition of ET-1 pressor effect on DBP,male mongrel dogs; [3],75%
same,inhibition of ET-1 pressor effect on IUP,male mongrel dogs; [3],94%
same,inhibition of phenylephrine-induced increase in DBP,male mongrel dogs; [4],33%
same,inhibition of phenylephrine-induced increase in IUP,male mongrel dogs; [4],11%
same,hemodynamic and prostatic urethral responses to ET-1,male mongrel dogs; anesthetized dogs,specifically inhibited
same,change of intra-arterial phenylephrine-induced increases in DBP and IUP after administration,"male mongrel dogs; one dog, specificity check",did not change significantly
